Measured values reported in US10035791B2, “Bicyclic compound and pharmaceutical composition thereof for treating stroke and use thereof” (China Medical University, priority 2016, dated 2018).

How the values were obtained:
HIF-1α = HIF-1α expressions of the NSCs, Western blot; type: cell-based, mice
Protocol: To prepare the NSCs, after removal of meninges, subventricular zones (SVZ) of lateral ventricles from adult mice brain (4 week-of-age) are aseptically isolated and dissociated as previously described (J Cell Sci 2006; 119, 4467-4474). All steps are operated under sterile conditions. Then, neurosphere culture are prepared in neurobasal (NB) medium (Gibco BRL) supplemented with 2% of B27 (Gibco BRL), 2 mM of L-glutamine (PAN Biotech), 100 U/ml of penicillin/0.1 […] of streptomycin (Gibco BRL). For maintenance and expansion of the cultures, the NB/B27 is further supplemented with 2 μg/mL of heparin (Sigma), 20 ng/mL of FGF-2 (R&D Systems) and 20 ng/mL of EGF (R&D Systems). Neurosphere cultures are maintained at 37° C. in a humidified incubator with 5% CO2. For clonal/low density cultures, primary neurospheres grown at high density are dissociated into a single cell suspension and reseeded into 96-well plates at 100 cells per ml of media and the number of newly formed neurospheres is counted after 7 days. In addition, the Bmi-1 expressions, SOX2 expressions, Nestin expressions, Musashi-1 expressions, BrdU expressions and ki-67 expressions of the newly formed neurospheres are determined by the immunofluorescence staining. […]
The NSCs are exposed to the various dosages of the Compound 1 (0.1 μM, 1 μM, 10 μM and 100 μM) and cultured in the neurosphere culture. The HIF-1α expressions and the Bmi-1 expressions of the NSCs are detected by the Western blot analysis. […]
In another example, the HIF-1α expressions of the NSCs are inhibited and then 1 μM of the Compound 1 is added into the medium of the NSCs. The HIF-1α expression and the Bmi-1 expressions of the NSCs are detected by the Western blot analysis. […]
In still another example, the NSCs are exposed to 1 μM of the Compound 1 and further cultured for various lengths of time (0.5 hour, 1 hour, 4 hours, 8 hours, 16 hours and 24 hours). The HIF-1α expressions and the Bmi-1 expressions of the NSCs are detected by the Western blot analysis. […]

Bmi-1 [1] = assay: Bmi-1 expressions of the NSCs in the SVZ and the DG of the ischemic rats, immunofluorescence staining; type: in vivo, Sprague-Dawley (SD) rats
[2] = test system: NSC in the brain of the ischemic rats; assay: Proliferation marker expressions (BrdU, ki-67) in the SVZ and DG of the ischemic rats; type: in vivo, Sprague-Dawley (SD) rats
Text: (§1) The ischemic rats are induced by an ischemia-reperfusion model to simulate transient focal cerebral ischemia in rats. Test animals are male Sprague-Dawley (SD) rats weighing 250-300 g. The rats are anesthetized with chloral hydrate (0.4 g/kg IP) and subjected to cerebral ischemia. The ischemia-reperfusion model is induced by ligations of bilateral common carotid arteries (CCAs) and a right middle cerebral artery (MCA). The bilateral CCAs are clamped with non-traumatic arterial clips, and the right MCA is ligated with an 10-0 nylon suture. After 90 minutes ischemia, the suture on the MCA and the arterial clips on CCAs are removed to allow reperfusion. Core body temperature is monitored with a thermistor probe (Hewlett-Packard Model 21090A probe, Hewlett-Packard Company, Andover, Mass.), and maintained at 37° C. with a heating pad during anesthesia. After recovery from anesthesia, rat body temperature is maintained at 37° C. with a heat lamp.
The ischemic rats treated with different dosages of the Compound 1 (0.1 mg/kg, 1 mg/kg and 10 mg/kg) and the ischemic rats reduced the Bmi-1 expressions or the HIF-1α expressions and then treated with 1 mg/kg of the Compound 1 are decapitated, and the brain tissues thereof are performed the immunofluorescence staining to detect the proliferation marker expressions (BrdU and ki-67) in the brains of the ischemic rats.

Bmi-1 [3] = assay: Bmi-1 expressions in the brains of the ischemic rats, Western blot; type: in vivo, Sprague-Dawley (SD) rats
Text: as §1
The ischemia-reperfusion model is established as described above. The ischemic rats are injected intraperitonealy with different dosages of the Compound 1 (0.1 mg/kg, 1 mg/kg and 10 mg/kg) at 4 hours after MCA ligation for three consecutive days. Sham rats undergo same protocol with the exception of the ligation of the bilateral CCAs and the right MCA. The rats only injected a vehicle are used as the control. The ischemic rats are decapitated at 4 hours, 16 hours, 24 hours, 36 hours and 72 hours after the Compound 1 injection. The Bmi-1 expressions and the HIF-1α expressions of the ischemic rats are detected by the Western blot analysis.
The ischemic rats are further treated with 100 mg/kg of the 2-ME2 or stereotaxic injected with the LV-Bmi-1-sh or the LV-control-sh to inhibit the HIF-1α expressions and the Bmi-1 expressions, and then the ischemic rats are treated with 1 mg/kg of the Compound 1. The effect of the administration of the Compound 1 on the Bmi-1 expressions in the brains of the ischemic rats which are reduced the Bmi-1 expressions or the HIF-1α expressions are detected by the Western blot analysis.

[4] = 2-ME2 treatment plus 1 mg/kg Compound 1

SMILES | exposure time at which the NSCs express the most HIF-1α (HIF-1α; 1 μM, 0.5 to 24 hours tested, FIG. 10C) [h] | HIF-1α expressions of the NSCs (HIF-1α; 0.1, 1, 10, 100 μM, normoxia (21% O2), in particular 1 μM, FIG. 10A) | number of Bmi-1+Nestin+ NSCs in the SVZ and the DG (Bmi-1 [1]; 0.1, 1, 10 mg/kg vs control, in particular 1 mg/kg, FIGS. 14A to 14D) | numbers of BrdU+ cells in the SVZ and the DG of the brains of the ischemic rats ([2]; 0.1, 1, 10 mg/kg vs control, in particular 1 mg/kg, FIGS. 15A to 15D) | numbers of ki-67+ cells in the SVZ and the DG of the brains of the ischemic rats ([2]; 0.1, 1, 10 mg/kg vs control, in particular 1 mg/kg, FIGS. 15E to 15H) | treatment time with the highest Bmi-1 expression (Bmi-1 [3]; 1 mg/kg, 4 to 72 hours after injection, FIG. 13A) [h] | Bmi-1 expressions in the brains of the ischemic rats (Bmi-1 [3]; 0.1, 1, 10 mg/kg intraperitoneal, vs control and sham rats, FIGS. 13A to 13C) | dosage with the highest Bmi-1 expression (Bmi-1 [3]; 0.1, 1, 10 mg/kg tested, 36 hours, FIG. 13B) [mg/kg] | enhancement of the HIF-1α expressions induced by the Compound 1 in NSCs (HIF-1α; 1 μM 2-ME2 for 16 hours, then 1 μM Compound 1, FIG. 10B) | Compound-1-induced enhancement of Bmi-1+Nestin+ NSCs numbers (Bmi-1 [1]; 100 mg/kg 2-ME2 intraperitoneal plus 1 mg/kg Compound 1) | Compound 1 increased numbers of the BrdU+ cells in the SVZ and the DG [2, 4] | Compound 1 increased numbers of the ki-67+ cells in the SVZ and the DG [2, 4] | increased Bmi-1 expressions by the Compound 1 treatment in brains of ischemic rats (Bmi-1 [3]; 100 mg/kg 2-ME2 plus 1 mg/kg Compound 1, FIG. 13C)
COC(=O)C1=CO[C@@H](O)[C@@H]2C(COC(=O)[C@@H](N)Cc3ccccc3)=CC[C@H]12 [Compound 1] | 0.5 | increased | significantly increases | significant enhancement | significant enhancement | 36 | significantly increases | 1 |  |  |  |  | 
COc1cc2c(cc1O)CC[C@@H]1[C@@H]2CC[C@]2(C)[C@@H](O)CC[C@@H]12 [Compound 2-ME2, 2-Methoxyestradiol, reference compound] |  |  |  |  |  |  |  |  | abolished | inhibits | abolishes | abolishes | inhibited
